Source: article PMC11833175, “Synthesis, characterization, antimicrobial, cytotoxic and carbonic anhydrase inhibition activities of multifunctional pyrazolo-1,2-benzothiazine acetamides” (Beilstein Journal of Organic Chemistry, 2025)
Values after ≈ are worked out from the molar mass of the structure shown. Where two headings read alike, the source gives them in different places. One block for each compound: values may come before it.

What was measured:
[1] = biological target: human carbonic anhydrase CA IX (Homo sapiens, UniProt Q16790); assay: hCA inhibition, stopped-flow CO2 hydration method, CA IX; conditions: mean from three assays, errors ±5–10%
Method: (§15) In vitro assessment of all targeted pyrazolobenzothiazine scaffolds for human carbonic anhydrase (hCA) inhibition was performed adopting a stopped-flow CO2 hydration method. The enzyme inhibition assays were carried out for four types of human CA isoforms: CA I, CA II, CA IX, and XII. […] Reason for the selection of these CA isoforms was to develop a comparative relationship for inhibition selectivity between CAs (IX, XII) attributed to tumour/cancer and other CAs (I, II). […] Analyses were carried out in-house using recombinant enzymes as described.

[2] = biological target: human carbonic anhydrase CA XII (Homo sapiens, UniProt O43570); assay: hCA inhibition, stopped-flow CO2 hydration method, CA XII; conditions: mean from three assays, errors ±5–10%
Method: as §15

[3] = biological target: human carbonic anhydrase CA I (Homo sapiens, UniProt P00915); assay: hCA inhibition, stopped-flow CO2 hydration method, CA I
Method: as §15

[4] = biological target: human carbonic anhydrase CA II (Homo sapiens, UniProt P00918); assay: hCA inhibition, stopped-flow CO2 hydration method, CA II; conditions: mean from three assays, errors ±5–10%
Method: as §15

[5] = Single-dose MTT cell viability assay; assay type: cell-based, human; conditions: human, HCT-116 cells (ATCC CCL-247), 48 h, 0.1% DMSO control = 100%, value (SD)
Method: (§1) Single-dose MTT assays were performed for compounds 7a–n against the human colon cancer mammalian cell line (HCT-116, ATCC CCL-247) for evaluating their inhibition of mammalian cell metabolism. Solutions of the tested compounds were prepared in DMSO and cancer cells were treated with 10 μM doses of compounds using the apoptosis inducing standard mensacarcin (10 μM) as a positive control.
(§2) Single-dose MTT assays were performed for compounds 7a–n with the human colon cancer mammalian cell line (HCT-116, ATCC CCL-247) for evaluating the compounds’ inhibitory effects on cell viability. Stock solutions of compounds were prepared in DMSO and cancer cells were treated with 10 μM doses of each compound and mensacarcin (10 μM) as a positive control. MTT in 1X PBS was added for a final concentration of 0.5 mg/mL 48 hours post compound addition to each well. Post incubation at 37 °C was carried out for 2 h. After the removal of the growth media, purple formazan metabolic product was dissolved in DMSO. A Biotek Synergy reader (96-well plate) was used to take absorbance of all samples at 550 nm. Cell viability was calculated as the ability of the metabolically active cells to reduce tetrazolium salt MTT [3-(4,5-dimethylthiazolyl-2)-2,5-diphenyltetrazolium bromide]. Control metabolic activity shown by cells treated with 0.1% DMSO was set to 100% cell growth. […]
(§3) For cytotoxic assays, dosage of tested compounds = 10 μM; dosage of mensacarcin […]
(§4) Percent survival / % Cell viability
(§5) Samples S. aureus E.coli (SD) C. albicans (SD) HCT-116 […]
(§6) HCT-116 (Human Colorn cancer cell line) Single -dose assay for […]
(§7) Figure S44: Graph showing cell viability of compounds 7a–n against human colon carcinoma cell line (HCT-116, ATCC CCL-247), dose of tested compounds = 10 μM, dose of positive control (mensacarcin) = 10 μM.

[6] = system: Candida albicans (ATCC 90027); assay: Microbroth single-dose antimicrobial assay, C. albicans; assay type: cell-based; conditions: ATCC90027, single dose 125 μg/mL, C. albicans ATCC 90027, value (SD)
Method: (§8) Microbroth single dose antimicrobial assays were performed against different pathogens including susceptible Staphylococcus aureus (ATCC 25923), Escherichia coli (ATCC 8739), and Candida albicans (ATCC 90027). Pathogens were treated with 125 μg/mL of tested compounds in duplicate.
(§9) The antimicrobial evaluation of the targeted compounds was carried out against five different pathogens including Staphylococcus aureus (susceptible, ATCC 25923; methicillin-resistant, ATCC BAA-41; multidrug-resistant, ATCC BAA-44), Escherichia coli ATCC 8739, and Candida albicans ATCC 90027. Reference antibiotics and final concentrations used as positive controls in these experiments were kanamycin (susceptible S. aureus, 50 μg), vancomycin (methicillin and multidrug-resistant S. aureus, 25 μg), ampicillin (E. coli, 50 μg), and amphotericin B (C. albicans, 25 μg). The final concentration of the tested compounds was 125 μg/mL for microbroth single-dose assays. Dimethyl sulfoxide was used at a final concentration of 0.1% as negative control. […] American type culture collection (ATCC, Manassas, VA, USA) has provided all microbial strains used in above experiments.
(§10) Antimicrobial Single-dose assay for compounds 7(a-n) against
(§11) S. aureus E. coli C. albicans
(§12) Figure S43: Graph showing results of antimicrobial single-dose microbroth assays of compounds 7a–n, dose of tested compounds = 125 μg/mL, control antibiotic s used: kanamycin = 50 μg/mL (Staphylococcus aureus ATCC 25923), ampicillin = 50 μg/mL (Escherichia coli ATCC 8739), and amphotericin B = 25 μg/mL (Candida albicans ATCC 90027). Dimethylsulfoxide ( DMSO) was used as the negative control at 1.25% […]
(§13) Table S1: Results of single-dose antimicrobial and cytotoxic assays for compounds 7a–n; dosage of tested compounds = 125 μg/mL; antibiotic control dosage (kanamycin = 50 μg/mL (Staphylococcus aureus ATCC 25923), ampicillin = 50 μg/mL (Escherichia coli ATCC 8739), and amphotericin B = 25 μg/mL (Candida albicans ATCC 90027).
as §3, §4, §5

[7] = system: Staphylococcus aureus (ATCC 25923); assay: Microbroth single-dose antimicrobial assay, susceptible S. aureus; assay type: cell-based; conditions: single dose 125 μg/mL; for percent survival of S. aureus at 125 µg/mL: Staphylococcus aureus, ATCC25923, S. aureus ATCC 25923, value (SD)
Method: as §8, §9, §10, §11, §12, §13, §3, §4, §5

[8] = system: Escherichia coli (ATCC 8739); assay: Microbroth single-dose antimicrobial assay, E. coli; assay type: cell-based; conditions: E. coli ATCC 8739, value (SD); for percent survival at 125 µg/mL: ATCC8739, single dose 125 μg/mL
Method: as §8, §9, §10, §11, §12, §13, §3, §4, §5

[9] = system: human colon cancer cell line HCT-116 (ATCC CCL-247); assay: Single-dose MTT cell viability assay; assay type: cell-based; conditions: 10 μM
Method: as §1, §2, §3, §4, §5, §6, §7

[10] = system: susceptible S. aureus (ATCC 25923); assay: Microbroth dilution assay (MIC90), susceptible S. aureus; assay type: cell-based, Staphylococcus aureus; conditions: Staphylococcus aureus, ATCC25923, 90% growth inhibition
Method: (§14) Microbroth dilution assays were performed for the determination of MIC (minimum inhibitory concentration, MIC90) values for compounds 7b and 7h against three different strains of Staphylococcus aureus: susceptible (ATCC 25923), methicillin-resistant (ATCC BAA-41), and multidrug-resistant (ATCC BAA-44).
as §9

[11] = system: multidrug-resistant S. aureus (ATCC BAA-44); assay: Microbroth dilution assay (MIC90), multidrug-resistant S. aureus; assay type: cell-based, Staphylococcus aureus; conditions: Staphylococcus aureus, ATCCBAA44; multidrug-resistant S. aureus ATCC BAA-44; 90% growth inhibition; read-out: MIC90 MDRSA
Method: as §14, §9

[12] = system: methicillin-resistant S. aureus (ATCC BAA-41); assay: Microbroth dilution assay (MIC90), methicillin-resistant S. aureus; assay type: cell-based, Staphylococcus aureus; conditions: Staphylococcus aureus, ATCC BAA-41 / MRSA; methicillin-resistant S. aureus ATCC BAA-41; 90% growth inhibition; read-out: MIC90 MRSA
Method: as §14, §9

[13] = read-out: Ki for targeted CAs, IX
[14] = read-out: Ki for targeted CAs, XII
[15] = read-out: Ki for targeted CAs, I, mean from three assays, errors ±5–10%
[16] = read-out: Ki for targeted CAs, II

Sequence of human carbonic anhydrase CA XII (O43570 25-354): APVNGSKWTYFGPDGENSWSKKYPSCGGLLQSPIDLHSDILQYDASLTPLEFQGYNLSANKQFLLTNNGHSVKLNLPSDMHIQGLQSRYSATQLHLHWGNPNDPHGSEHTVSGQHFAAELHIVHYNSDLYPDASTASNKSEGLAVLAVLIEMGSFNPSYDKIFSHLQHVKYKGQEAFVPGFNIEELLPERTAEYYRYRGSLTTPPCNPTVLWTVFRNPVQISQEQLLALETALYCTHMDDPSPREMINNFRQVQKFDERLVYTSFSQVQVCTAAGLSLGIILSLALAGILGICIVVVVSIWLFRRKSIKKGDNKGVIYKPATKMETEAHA
Sequence of human carbonic anhydrase CA I (P00915 whole entry): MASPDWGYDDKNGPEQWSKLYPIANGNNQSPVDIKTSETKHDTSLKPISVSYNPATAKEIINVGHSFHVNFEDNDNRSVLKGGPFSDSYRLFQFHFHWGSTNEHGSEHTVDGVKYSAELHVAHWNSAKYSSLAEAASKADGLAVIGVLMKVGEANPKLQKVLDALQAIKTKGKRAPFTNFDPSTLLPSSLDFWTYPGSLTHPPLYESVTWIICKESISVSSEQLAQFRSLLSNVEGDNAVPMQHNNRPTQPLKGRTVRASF

Ki [1, 13]: > 100 µM
Ki [2, 14]: 79.1 µM
Ki [3, 15]: > 100 µM
Ki [4, 16]: 90.3 µM
Compound: CN1c2c(O)nn(CC(=O)NCc3ccccc3)c2-c2ccccc2S1(=O)=O [Compound 7f]

Ki ([1]; Ki for targeted CAs, IX): > 100 µM
Ki ([2]; Ki for targeted CAs, XII): > 100 µM
Ki [3]: > 100 µM
Ki ([4]; Ki for targeted CAs, II): > 100 µM
Compound: Cc1cccc(NC(=O)COc2nn(CC(=O)Nc3cccc(C)c3C)c3c2N(C)S(=O)(=O)c2ccccc2-3)c1C [Compound 7k]
viability at 48 h, 10 µM [5]: 90.7%
percent survival at 125 µg/mL [6]: > 100%
percent survival of S. aureus at 125 µg/mL [7]: > 100%
percent survival at 125 µg/mL [8]: 94.2%

Ki ([1]; Ki for targeted CAs, IX): 72.9 µM
MIC90 [10]: 16 µg/mL (≈ 38.2 µM)
Ki ([2]; Ki for targeted CAs, XII): 77.4 µM
Ki [3]: > 100 µM
MIC90 [11]: 16 µg/mL (≈ 38.2 µM)
MIC90 [12]: 16 µg/mL (≈ 38.2 µM)
Ki ([4]; Ki for targeted CAs, II): 90.9 µM
Compound: CN1c2c(O)nn(CC(=O)Nc3cccc(Cl)c3)c2-c2ccccc2S1(=O)=O [Compound 7b]
viability at 48 h, 10 µM [5]: 88.9%
effect on HCT-116 cell viability (in words) [9]: no significant decrease in mammalian cell viability
percent survival at 125 µg/mL [6]: 87%
percent survival of S. aureus at 125 µg/mL [7]: 37.2%
antibacterial activity against susceptible S. aureus (in words) ([7]; duplicate): significant antibacterial activity
percent survival at 125 µg/mL [8]: 95.3%

Ki [1, 13]: > 100 µM
Ki [2, 14]: > 100 µM
Ki [3, 15]: > 100 µM
Ki [4, 16]: > 100 µM
Compound: CN1c2c(OCC(=O)Nc3ccc([N+](=O)[O-])cc3)nn(CC(=O)Nc3ccc([N+](=O)[O-])cc3)c2-c2ccccc2S1(=O)=O [Compound 7i]

Ki [1, 13]: > 100 µM
Ki [2, 14]: > 100 µM
Ki [3, 15]: > 100 µM
Ki [4, 16]: > 100 µM
Compound: Cc1ccc(NC(=O)COc2nn(CC(=O)Nc3ccc(C)cc3)c3c2N(C)S(=O)(=O)c2ccccc2-3)cc1 [Compound 7m]

Ki [1, 13]: > 100 µM
Ki [2, 14]: 90.2 µM
Ki [3, 15]: > 100 µM
Ki [4, 16]: 84.6 µM
Compound: CN1c2c(O)nn(CC(=O)Nc3ccc(Cl)cc3)c2-c2ccccc2S1(=O)=O [Compound 7a]

Compound: CC1(C)S[C@@H]2[C@H](NC(=O)[C@H](N)c3ccccc3)C(=O)N2[C@H]1C(=O)O [Ampicillin, ampicillin, reference compound]
percent survival at 50 µg/mL ([8]; ATCC8739, antibiotic control 50 μg/mL): 4.16%
